According to publication PMC8338929, “Acetylation turns leucine into a drug by membrane transporter switching” (Scientific Reports, 2021):

What was measured:
Type in all cases: cell-based
Human OAT1 (SLC22A6) [1] = molecular target: T1, Human OAT1 (SLC22A6) (Homo sapiens, UniProt Q4U2R8); assay: Inhibition of OAT1 uptake of probe substrate chlorothiazide in HEK-293 cells; settings: probe chlorothiazide 3 µM; positive control diclofenac 100 µM
T1 construct: host or cells: HEK-293
T1 sequence (Q4U2R8 1-563): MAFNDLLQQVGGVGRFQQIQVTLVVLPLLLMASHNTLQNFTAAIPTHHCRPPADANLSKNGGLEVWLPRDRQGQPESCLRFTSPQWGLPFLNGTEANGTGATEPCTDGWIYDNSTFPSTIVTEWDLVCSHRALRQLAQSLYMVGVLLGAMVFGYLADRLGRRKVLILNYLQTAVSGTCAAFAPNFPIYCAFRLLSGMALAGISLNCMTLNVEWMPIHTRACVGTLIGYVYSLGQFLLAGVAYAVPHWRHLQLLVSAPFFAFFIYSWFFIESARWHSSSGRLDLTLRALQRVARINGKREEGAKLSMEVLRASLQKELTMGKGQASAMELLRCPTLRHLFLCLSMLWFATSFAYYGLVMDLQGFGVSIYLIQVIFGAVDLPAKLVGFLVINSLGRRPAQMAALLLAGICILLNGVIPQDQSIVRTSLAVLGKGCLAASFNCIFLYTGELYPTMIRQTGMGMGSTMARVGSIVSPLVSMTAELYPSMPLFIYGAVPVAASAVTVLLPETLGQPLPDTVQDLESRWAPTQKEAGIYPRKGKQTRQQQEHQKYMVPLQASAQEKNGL
Method: (§1) Cells were grown in DMEM (Gibco 4196, high glucose, without sodium pyruvate) supplemented with MEM non-essential amino acids and 10% fetal bovine serum. Cells were re-fed with fresh medium after attachment (4–6 h post-seeding). Cell were plated at a density of 4 × 10^5/well in 24-well plates coated with poly-D-lysine. Transporter assays were conducted in 400 µL of HBSS supplemented with 10 mM Hepes, pH 7.4
(§2) The known probe substrates used as positive controls were 3 μM chlorothiazide for OAT1, 2 μM estrone-3-sulfate for OAT3, 10 µM [^3H]gabapentin for LAT1, 50 µM [^3H]Gly-Sar for PepT1, 500 µM thiophene-2-glyoxylic acid for MCT1. The known inhibitors used as controls for each transporter were 100 μM diclofenac for OAT1 and OAT3, 10 µM JPH203 for LAT1 and 200 µM losartan for PepT1. All incubations were in triplicate and contained 1% (OAT1 and OAT3) or 0.5% DMSO (LAT, PepT1 and MCT1). […]
(§3) [I] is the inhibitor concentration and IC50 is the inhibitor concentration where the remaining activity is at the midpoint between the Top and Bottom. […] In inhibition experiments, the IC50 is not equivalent to affinity because it is dependent on the concentrations of the substrate, the inhibitor and affinity; therefore, we assumed competitive inhibition, and calculated affinity of inhibition (Ki) with the Cheng-Prusoff equation[49].

Human OAT1 (SLC22A6) [2] = molecular target: T1, Human OAT1 (SLC22A6); assay: OAT1-mediated cellular uptake in overexpressing HEK-293 cells
Method: as §1
The known probe substrates used as positive controls were 3 μM chlorothiazide for OAT1, 2 μM estrone-3-sulfate for OAT3, 10 µM [^3H]gabapentin for LAT1, 50 µM [^3H]Gly-Sar for PepT1, 500 µM thiophene-2-glyoxylic acid for MCT1. The known inhibitors used as controls for each transporter were 100 μM diclofenac for OAT1 and OAT3, 10 µM JPH203 for LAT1 and 200 µM losartan for PepT1. All incubations were in triplicate and contained 1% (OAT1 and OAT3) or 0.5% DMSO (LAT, PepT1 and MCT1). The duration of uptake was 5 min for OAT1 and OAT3, 3 min for LAT1 and PepT1 and 1 min for MCT1. Assays were performed at 37 °C with no shaking, except MCT1 at room temperature. To determine uptake due to the overexpressed transporter per se, uptake was taken as the difference between accumulation between transfected and nontransfected cells in parallel experiments at the same concentration and time. To terminate uptake the plate was placed on ice and cells washed twice with ice-cold transport buffer. […]

Human OAT3 (SLC22A8) = molecular target: T2, Human OAT3 (SLC22A8) (Homo sapiens, UniProt Q8TCC7); assay: Inhibition of OAT3 uptake of probe substrate estrone-3-sulfate in HEK-293 cells; settings: probe estrone-3-sulfate 2 µM; positive control diclofenac 100 µM
T2 construct: host or cells: HEK-293
T2 sequence (Q8TCC7 1-542): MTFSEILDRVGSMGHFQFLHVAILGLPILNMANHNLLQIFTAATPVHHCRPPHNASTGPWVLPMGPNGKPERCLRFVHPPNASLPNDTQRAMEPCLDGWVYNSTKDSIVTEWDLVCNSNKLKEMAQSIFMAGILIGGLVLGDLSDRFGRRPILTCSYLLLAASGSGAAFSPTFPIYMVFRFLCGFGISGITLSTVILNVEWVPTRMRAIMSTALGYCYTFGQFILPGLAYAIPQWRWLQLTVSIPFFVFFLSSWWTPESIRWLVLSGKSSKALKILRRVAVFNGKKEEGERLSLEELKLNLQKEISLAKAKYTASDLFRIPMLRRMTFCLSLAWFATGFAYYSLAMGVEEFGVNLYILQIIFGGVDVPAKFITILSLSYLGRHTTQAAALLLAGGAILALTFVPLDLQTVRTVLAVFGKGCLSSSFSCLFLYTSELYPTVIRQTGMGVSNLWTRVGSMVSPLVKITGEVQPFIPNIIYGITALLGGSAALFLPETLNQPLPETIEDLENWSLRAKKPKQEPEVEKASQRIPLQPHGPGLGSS
Method: as §1, §2, §3

IC50 (Human OAT1 (SLC22A6) [1]): 6.2 mM
Vmax OAT1 uptake (Human OAT1 (SLC22A6) [2]; Michaelis-Menten fit): 173
substrate of OAT1 (uptake) (Human OAT1 (SLC22A6) [2]; pH 7.4, 5 min): substrate
IC50 (Human OAT3 (SLC22A8)): 0.7 mM
SMILES: CC(=O)N[C@@H](CC(C)C)C(=O)O [N-acetyl-L-leucine]
